Measurements published in patent US20220296518A1, “LIPID-BASED NANOPARTICLE DELIVERY SYSTEM FOR HYDROPHILIC CHARGED COMPOUND” (National Taiwan University, priority 2021, published 2022).
Values after ≈ are worked out from the molar mass of the structure shown.

Key:
[1] = In vitro drug release by dialysis at pH 7.4 (PBS) and pH 5.4 (citrate buffer), 37° C.; type: physicochemical
From the text: The “normalized release” is defined as release ratio in pH 5.4 environment divided by release ratio in pH 7.4 environment wherein the release ratio is defined as the percentage of API released from LNP. A high normalized release is a result of high release ratio in pH 5.4 environment as compared to the release ratio in pH 7.4 environment. Since tumor sites present acidic environment, a high normalized release is a metric indicating tumor targeting capability of an LNP. During experiments, PBS buffer was used to simulate a physiological environment at pH of 7.4, while citrate buffer was used to simulate a tumor microenvironment at pH of 5.4, wherein the citrate buffer contains sodium citrate dehydrate and citric acid and its pH can be adjusted using NaOH and HCl. The in vitro API release was evaluated in these two different solutions using the following steps: 1 mg/mL LNP-dox solution in PBS buffer was prepared by diluting LNP-dox using PBS buffer. The solution was placed into a 1 mL/5 cm dialysis tube (Float-A-lyzer), in which the pore size is 100 kDa. The tube was placed into a beaker containing 150 mL dialysis buffer. The beaker was then placed into a 37° C. water bath. Samples of 1 mL solution were taken from the beaker at 0, 0.5, 1, 2, 4, 8, 26, and 31 hour(s). The API content in the samples was analyzed using UV-Vis spectrophotometer such as […]. […]

colon-26 carcinoma tumor = assay: In vivo therapeutic efficacy in colon-26 carcinoma tumor-bearing mice; set-up: species or system BALB/c mice; details: end of the experiment; 5 mg/kg of dox via tail vein, once per week
Protocol: C26 […] cancer cell line was implanted into the backs of BALB/c mice to create colon-26 carcinoma tumor-bearing mice. When the tumor grew to 100 mm^3, LNP 1 of the present invention containing dox was injected via mice's vein located in the tail at a dosage of 5 mg/kg of dox, once per week. At predetermined time periods 1, 2, 5, 7, 9, 12, 14, 19, 21, 22 days, tumor volume was determined by Vernier caliper. The experiment continued until either mouse death or the tumor size exceeding 2,500 mm^3.

Staphylococcus aureus = assay: In vitro antibacterial susceptibility, Staphylococcus aureus; type: cell-based; details: 10^5 CFU, about 24 hour, about 37° C.
Protocol: FIG. 8 illustrates in vitro Staphylococcus aureus antibacterial susceptibility to LNP 1 of the present invention encapsulating doxycycline as compared to free form doxycycline both at MIC 0.4 mcg/ml.
(§1) Free form doxycycline and LNP 1 of the present invention containing doxy were separately applied to Staphylococcus aureus bacteria as well as methicillin-resistant Staphylococcus aureus at 10^5 CFU, incubation with LNP for about 24 hour at about 37° C.

[2] = tested on: methicillin-resistant Staphylococcus aureus; assay: In vitro antibacterial susceptibility, methicillin-resistant Staphylococcus aureus; type: cell-based; details: 10^5 CFU, about 24 hour, about 37° C.
Protocol: FIG. 9 illustrates in vitro methicillin-resistant Staphylococcus aureus antibacterial susceptibility to LNP 1 of the present invention encapsulating doxycycline as compared to free form doxycycline both at MIC 0.4 mcg/ml.
as §1

| SMILES | normalized release (release ratio at pH 5.4 / release ratio at pH 7.4) ([1]; 37° C., dialysis, up to 31 hours) | release rate (in words) ([1]; pH 7.4 and pH 5.4, 37° C., FIG. 6) | mice that died or had tumor size of over 2500 mm^3 (colon-26 carcinoma tumor) | MIC (Staphylococcus aureus) | MIC [2] |
| --- | --- | --- | --- | --- | --- |
| COc1cccc2c1C(=O)c1c(O)c3c(c(O)c1C2=O)C[C@@](O)(C(=O)CO)C[C@@H]3O[C@H]1C[C@H](N)[C@H](O)[C@H](C)O1 [free form dox, doxorubicin] | about 1 | released the fastest of the three | 40% |  |  |
| C[C@H]1c2cccc(O)c2C(=O)C2=C(O)[C@]3(O)C(=O)C(C(N)=O)=C(O)[C@@H](N(C)C)[C@@H]3[C@@H](O)[C@@H]21 [free form doxycycline, doxycycline] |  |  |  | 0.4 µg/mL (≈ 0.9 µM) | 0.4 µg/mL (≈ 0.9 µM) |
